{
  "source": "patent US8076323B2",
  "about": "“Anti-inflammatory agents” (Cambridge Enterprise Limited, priority 2005, dated 2011)",
  "key": {"[1]": {"test_system": "chemokine-induced migration", "settings": "cited from earlier work"}, "[2]": {"settings": "oral route or injection; comparable to dexamethasone; cited from earlier work"}, "[3]": {"test_system": "chemokine-induced migration", "assay": "chemokine-induced leukocyte migration in vitro (prior work)", "type": "cell-based", "settings": "compared with (S)-3-(undec-10-enoyl)-aminoglutarimide"}, "stability in human serum": {"assay": "stability in human serum", "type": "in vitro ADME", "settings": "37° C."}, "[4]": {"settings": "cited from earlier work"}},
  "note": "Bridges are numbered along the chain shown (N, C = ends). Where no end group is shown, it is not given here. [ ]: non-standard residue; d: D form.",
  "data": [
    {"molecule": "O=C1NCCCC[C@@H]1NC(=O)C12CC3CC(CC(C3)C1)C2", "note": "[(S)-3-(1′-adamantanecarbonylamino)caprolactam]", "values": [
      {"measurement": "inhibition of leukocyte migration or recruitment in vitro (in words)", "setting": "[1]", "result": "potent inhibitor"},
      {"measurement": "anti-inflammatory activity in vivo (in words)", "setting": "[2]", "result": "powerful anti-inflammatory activity"}
    ]},
    {"molecule": "C=CCCCCCCCCC(=O)[C@@H]1CCCNC1=O", "note": "[(S)-3-(undec-10-enoyl)-tetrahydropyridin-2-one]", "values": [
      {"measurement": "potency compared with the parental molecule", "setting": "[3]", "result": "considerably reduced potency"},
      {"measurement": "time completely stable in human serum", "setting": "stability in human serum", "result": "at least 7 days"}
    ]},
    {"molecule": "c(DCys-DGin-DIle-DTrp-DLys-DGln-DLys-DPro-DAsp-DLeu-DCys)-NH2 ([dC][dQ][dI][dW][dK][dQ][dK][dP][dD][dL][dC]-NH2; disulfide 1-11 (inferred)) [NR58-3.14.3]", "values": [
      {"measurement": "half-life period of clearance from blood plasma", "setting": "[4]; after intravenous injection", "result": "less than 30 minutes"},
      {"measurement": "oral bioavailability", "setting": "[4]; in vivo, po", "result": "not orally bioavailable"}
    ]}
  ]
}
